PMC4860824, “Targeting the γ-/β-secretase interaction reduces β-amyloid generation and ameliorates Alzheimer’s disease-related pathogenesis” (Cell Discovery, 2015)

Target: T1, presenilin-1 (PS1) (Homo sapiens, UniProt P49768)
T1 construct: gene PSEN1; PS1-NTF
Assay: dose-dependent competition with XYT1032 photo-affinity labelling in HEK293T cells ([…])
Assay type: cell-based

C=C1CCC2(C(=O)O)CC[C@]3(C)C(=CC[C@H]4C3(C)CC[C@H]3C(C)(C)[C@H](O)CC[C@@]34C)[C@@H]2C1 (stereo partly drawn) [3AA, 3-α-Akebonoic acid]
dose-dependent competition with XYT1032 photo-affinity labelling in HEK293T cell: in the presence of XYT472B or 3AA, the labeling of PS1-NTF was decreased dose dependently
